B1: PDGF-BB: platelet-derived growth factor-BB, agonist used to stimulate PSMC migration and MAPK phosphorylation (protein, UniProt P01127 82-190, looked up)
Platelet-derived growth …: SLGSLTIAEPAMIAECKTRTEVFEISRRLIDRTNANFLVWPPCVEVQRCSGCCNNRNVQCRPTQVQLRPVQVRKIEIVRKKPIFKKATVTLEDHLACKCETVAAARPVT

What was measured:
[1] = tested on: porcine smooth muscle cells (PSMC); experiment: Mitogenic assay, PSMC proliferation; type: cell-based; details: 17βE (10^−8 mol/L); 72 hours
Experimental: (§1) FIG. 2: Contribution of ERα and ERβ on PSMC proliferation. PSMC were seeded at 1×10^4 cells/well and stimulated with or without antisense oligomers as described in the methods. Cells were then stimulated with or without 17βE (10^−8 mol/L) and a cell count achieved 72 hours post-treatment. The values are means of cell counts obtained from 6 wells for each treatment. *, P<0.05 as compared to day 0; t, P<0.05 as compared to control (1% FBS); *, P<0.05 as compared to cells treated with 17βE (10% mol/L).
(§2) Confluent PAEC and PSMC were rinsed with DMEM and trypsinized. Cells were resuspended in 10 mL of DMEM, 5% FBS, and antibiotics, and a cell count was obtained by using a Coulter counter Z1. PAEC and PSMC were initially seeded at 1×10^4 cells/well of 24-well tissue culture plates stimulated for 24 hours in DMEM, 5% FBS, and antibiotics with or without antisense oligomers (10^−6 mol/L), and starved for 48 hours in DMEM, 0.1% FBS, and antibiotics with or without antisense oligomers (10^−6 mol/L daily) for Go synchronization. The cells were stimulated for 72 hours in DMEM, 1% FBS, antibiotics with or without antisense oligomers (10^−6 mol/L daily) and with or without of 17βE (10^−8 mol/L). After trypsinization, cell number was determined by using a Coulter counter Z1.

[2] = tested on: porcine aortic endothelial cells (PAEC); experiment: Mitogenic assay, PAEC proliferation; type: cell-based; details: 17βE 10^−8 mol/L, compared to cells treated with FBS 1%; 3 days
Experimental: as §1, with “FIG. 5:” for “FIG. 2:”, “on PAEC” for “on PSMC”, “proliferation. PAEC” for “proliferation. PSMC”, “0; †,” for “0; t,”, “FBS); ‡,” for “FBS); *,”, “17βE (10^−8” for “17βE (10%”
as §2

[3] = tested on: porcine smooth muscle cells (PSMC); experiment: Chemotactic assay (modified Boyden chamber), PSMC migration; type: cell-based; details: PDGF-BB 10 ng/mL
Experimental: FIG. 3: Contribution of ERα and ERβ on PSMC migration. PSMC were trypsinized and resuspended in DMEM; 2.5×10^5 cells/well of a six-well tissue culture plate were stimulated with or without antisense oligomers as described in the methods. 2.5×10^4 cells were added in the higher compartment of the modified Boyden chamber apparatus with or without antisense oligomers, and the lower chamber was filled with DMEM 1% FBS, and antibiotics with or without PDGF-BB (10 ng/ml). Five hours postincubation at 37° C., the migrated cells were fixed, stained and counted by using a microscope adapted to a digitized video camera. The values are represented as relative mean of migrating cells from 6 chambers for each treatment. *, P<0.05 as compared unstimulated cells; †, P<0.05 as compared to cells treated with PDGF-BB; ‡, P<0.05 as compared to cells treated with 17βE (10^−8 mol/L).
(§3) Cell migration was evaluated using a modified Boyden 48-well microchamber kit (NeuroProbe, Cabin John, Md.). Near confluent PAEC and PSMC were rinsed with DMEM and trypsinized. Cells were resuspended in DMEM, 5% FBS, and antibiotics, and a cell count was obtained. […] The filter was then mounted on a glass slide, and migrated cells were counted using a microscope adapted to a video camera to obtain a computer-digitized image. […]

[4] = tested on: porcine aortic endothelial cells (PAEC); experiment: Chemotactic assay (modified Boyden chamber), PAEC migration; type: cell-based; details: 17βE 10^−8 mol/L, 5 hours, compared to cells treated with FBS 1%
Experimental: FIG. 6: Contribution of ERα and ERβ on PAEC migration. PAEC were trypsinized and resuspended in DMEM; 2.5×10^5 cells/well of a six-well tissue culture plate were stimulated with or without antisense oligomers as described in the methods. 2.5×10^4 cells were added in the higher compartment of the modified Boyden chamber apparatus with or without antisense oligomers, and the lower chamber was filled with DMEM 1% FBS, and antibiotics with or without 17βE (10^−8 mol/L). Five hours postincubation at 37° C., the migrated cells were fixed, stained and counted by using a microscope adapted to a digitized video camera. The values are represented as relative mean of migrating cells/mm^2 from 6 chambers for each treatment. *, P<0.05 as compared to unstimulated cells; t, P<0.05 as compared to cells treated with 17βE (10^−8 mol/L).
as §3

[5] = tested on: p42/44 MAPK phosphorylation; experiment: Western blot of p42/44 MAPK phosphorylation in PSMC; type: cell-based, porcine; details: PDGF-BB stimulation 5 minutes; 17βE 10^−8 mol/L 30-minute pretreatment
Experimental: (§4) FIG. 4: Contribution of ERα and ERβ on p42/44 and p38 MAPK activation in PSMC. PSMC were seeded at 1×10^6 cells/100-mm culture plate and grown to confluence. Cells were treated either with antisense or scrambled oligomers as described in the methods. Cells were then treated with or without 17βE (10^−8 mol/L) for 30 minutes and stimulated 5 minutes for p42/44 MAPK (A) or 30 minutes for p38 MAPK (B) with PDGF-BB. Proteins were detected by Western blot analyses. Image densitometry results are given as relative expression (%) as compared to control PBS-treated cells.
(§5) The efficiency and specificity of our antisense oligomers to prevent the expression of targeted proteins were evaluated by Western blot analyses. Culture medium of confluent PAEC and PSMC (100-mm tissue culture plate) was removed, the cells were rinsed with Dulbecco's modified eagle medium (DMEM; Life Technologies Inc., Carlsbad, Calif.) and trypsinized (trypsine-EDTA; Life Technologies). Cells were resuspended in DMEM containing 5% of fetal bovine serum (FBS) (Hyclone Laboratories, Logan, Utah) and antibiotics (penicillin and streptomycin, Sigma, St-Louis, Mo.), and a cell count was obtained with a Coulter counter Z1 (Coulter Electronics, Luton, UK). […] Plates were incubated at 4° C. for 30 minutes and scraped, and the protein concentration was determined with a Bio-Rad protein assay kit (Bio-Rad, Hercules, Calif.). […]

[6] = tested on: p38 MAPK phosphorylation; experiment: Western blot of p38 MAPK phosphorylation in PSMC; type: cell-based, porcine; details: PDGF-BB stimulation 30 minutes; 17βE 10^−8 mol/L 30-minute pretreatment
Experimental: as §4, §5

[7] = tested on: p42/44 MAPK phosphorylation; experiment: Western blot of p42/44 MAPK phosphorylation in PAEC; type: cell-based, porcine; details: 17βE 10^−8 mol/L, 5 minutes; vs PBS-treated PAEC
Experimental: (§6) FIG. 7: Contribution of ERα and ERβ on p42144 and p38 MAPK activation in PAEC. PAEC were seeded at 1×10^6 cells/100-mm culture plate and grown to confluence. Cells were treated either with antisense or scrambled oligomers as described in the methods. Cells were then treated with or without 17βE (10^−8 mol/L) for 5 minutes for p42/44 MAPK activation (A) or 30 minutes for p38 MAPK stimulation (B). Proteins were detected by Western blot analyses. Image densitometry results are given as relative expression (%) as compared to control PBS-treated cells.
as §5

[8] = tested on: p38 MAPK phosphorylation; experiment: Western blot of p38 MAPK phosphorylation in PAEC; type: cell-based, porcine; details: 17βE, 30 minutes stimulation; vs PBS-treated PAEC
Experimental: as §6, §5

[9] = local delivery following coronary angioplasty in pigs; cited from earlier work

Molecule	prevention of PSMC proliferation mediated by FBS 1% [1]	enhancement of PAEC proliferation [2]	inhibition of the chemotactic effect of PDGF-BB on PSMC (in words) ([3]; 17βE 10^−8 mol/L)	promotion of PAEC migration [4]	p42/44 MAPK phosphorylation in PSMC (in words) [5]	p38 MAPK phosphorylation in PSMC (in words) [6]	increase of p42/44 MAPK phosphorylation in PAEC [7]	increase of p38 MAPK phosphorylation in PAEC [8]	endothelial NO synthase (eNOS) expression (in words) [9]	neointimal formation (in words) [9]	reendothelialization process (in words) [9]	increase of basal migration of PSMC ([3]; 5 hours, compared to cells treated with FBS 1%)
C[C@]12CC[C@@H]3c4ccc(O)cc4CC[C@H]3[C@@H]1CC[C@@H]2O [17βE, 17-beta-estradiol]	95%	123%	inhibited completely	363%	reversed	reversed	317%	254%	improving	reducing	improving	
B1					increased	increased						141%

From patent US20080214517A1, “Modulation of the Expression of Estrogen Receptors for the Prevention or Treatment of Heart Disease” (priority 2003, published 2008)
